Values joined by “and” are separate entries in the source; they are usually repeats but may differ in a detail not shown here. Identical values can stand only once.
Key:
Format in all cases: in vivo
Lolium multiflorum = test: greenhouse pre-emergence treatment, LOLMU
Summary of the method: (§1)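 Seeds were sown per species in pots of loamy sand with about 3.0% humus, sprayed with the aqueous spray liquor directly after sowing, watered and hooded until rooted, then kept at 10-25° C. or 20-35° C. for 2 to 4 weeks. Damage was scored 0 (none) to 100 (no emergence/complete destruction).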

Apera spica-venti [1] = test: greenhouse pre-emergence treatment, APESV
Summary of the method: as §1

Matricaria chamomilla = test: greenhouse pre-emergence treatment, MATCH; conditions: 20 DAT
Description: The culture containers used were plastic pots containing loamy sand with approximately 3.0% of humus as substrate. The seeds of the test plants were sown separately for each species.
For the pre-emergence treatment, the active compounds, suspended or emulsified in water, were applied directly after sowing by means of finely distributing nozzles. The containers were irrigated gently to promote germination and growth and subsequently covered with transparent plastic hoods until the plants had rooted. This cover caused uniform germination of the test plants unless this was adversely affected by the active compounds.
Depending on the species, the plants were kept at 10-25° C. and 20-35° C., respectively.
The test period extended over 2 to 4 weeks. During this time, the plants were tended and their response to the individual treatments was evaluated.
Evaluation was carried out using a scale from 0 to 100. 100 means no emergence of the plants, or complete destruction of at least the above-ground parts, and 0 means no damage or normal course of growth. A good herbicidal activity is given at values of at least 70, and very good herbicidal activity is given at values of at least 85.
The respective stated components A and B, and if appropriate, C were formulated as a 10% by weight strength emulsion concentrate and, with addition of the amount of solvent system, introduced into the spray liquor used for applying the active compound. In the examples, the solvent used was water.
In the examples below, using the method of S. R. Colby (1967) “Calculating synergistic and antagonistic responses of herbicide combinations”, Weeds 15, p. 22ff., the value E, which is expected if the activity of the individual active compounds is only additive, was calculated. E=X+Y−(X·Y/100) where X=effect in percent using herbicide A at an application rate a; • Y=effect in percent using herbicide B at application rate b; • E=expected effect (in %) of herbicide A+herbicide B at application rates a+b.

Poa annua = test: greenhouse pre-emergence treatment, POAAN; conditions: 20 DAT
Summary of the method: as §1

Digitaria sanguinalis = test: greenhouse pre-emergence treatment, DIGSA
Summary of the method: as §1

Papaver rhoeas = test: greenhouse pre-emergence treatment, PAPRH
Summary of the method: as §1

Apera spica-venti [2] = test: greenhouse post-emergence treatment, APESV
Summary of the method: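 Loamy sand, ~3.0% humus; species sown separately; treated at 3–15 cm height; 10% w/w EC diluted in water; 10-25° C./20-35° C. per species; 2–4 wk; visual 0–100 rating.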

Galium aparine = test: greenhouse pre-emergence treatment, GALAP
Summary of the method: as §1

Bromus sterilis = test: greenhouse pre-emergence treatment, BROST
Summary of the method: as §1

Stellaria media = test: greenhouse pre-emergence treatment, STEME
Summary of the method: as §1

[3] = 20 DAT, Ex. 26 solo 31.25 gai/ha
[4] = Ex. 26 solo, 125 gai/ha, 20 DAT
[5] = 20 DAT, Ex. 26 solo 62.5 gai/ha
[6] = 20 DAT, solo Ex. 26 62.5 gai/ha
[7] = Ex. 26 solo 31.25 gai/ha, 20 DAT
[8] = Ex. 26 solo 62.5 gai/ha, 20 DAT
[9] = Ex. 26 solo, 62.5 gai/ha, 20 DAT

COC(=O)c1nc(C2CC2)ncc1-c1ccc(F)cc1Cl [Ex. 26]
% activity (Lolium multiflorum; [3]): 10%
% activity (Lolium multiflorum; 20 DAT, LOLMU, Ex. 26 solo 62.5 gai/ha): 10%
% activity (Lolium multiflorum; Ex. 26 solo 62.5 gai/ha, 20 DAT, LOLMU): 30%
% activity (Lolium multiflorum; Ex. 26 solo, 31.25 gai/ha, 20 DAT, LOLMU): 0%
% activity (Lolium multiflorum; Ex. 26 solo, 62.5 gai/ha, 20 DAT, LOLMU): 0%
% activity (Lolium multiflorum; Ex. 26 solo, 125 gai/ha, 20 DAT, LOLMU): 0%
% activity (Lolium multiflorum; LOLMU, 20 DAT, solo Ex. 26 62.5 gai/ha): 0%
% activity (Lolium multiflorum; LOLMU, 20 DAT, solo Ex. 26 62.5 gai/ha (Table X68)): 0%
% activity (Lolium multiflorum; LOLMU, 20 DAT, solo Ex. 26 125 gai/ha): 0%
% activity (Lolium multiflorum; LOLMU, Ex. 26 solo 31.25 gai/ha, 20 DAT): 0%
% activity (Lolium multiflorum; LOLMU, Ex. 26 solo 62.5 gai/ha, 20 DAT): 0%
% activity (Lolium multiflorum; LOLMU, Ex. 26 solo 125 gai/ha, 20 DAT): 30%
% activity (Apera spica-venti [1]; 20 DAT, Ex. 26 solo 125 gai/ha): 90%
% activity (Apera spica-venti [1]; 20 DAT, solo Ex. 26 125 gai/ha): 75%
% activity (Apera spica-venti [1]; 20 DAT, solo Ex. 26 125 gai/ha (Table X68)): 70%
% activity (Apera spica-venti [1]; Ex. 26 solo 125 gai/ha, 20 DAT): 65%
% activity (Apera spica-venti [1]; [4]): 70%
% activity (Matricaria chamomilla; Ex. 26 solo 62.5 gai/ha): 0%
% activity (Matricaria chamomilla; Ex. 26 solo 125 gai/ha): 0%
% activity (Poa annua; solo Ex. 26 62.5 gai/ha): 70%
% activity (Poa annua; solo Ex. 26 125 gai/ha): 65%
% activity (Poa annua; Ex. 26 solo 62.5 gai/ha): 75% and 90%
% activity (Poa annua; Ex. 26 solo, 31.25 gai/ha): 30%
% activity (Poa annua; Ex. 26 solo, 125 gai/ha): 65%
% activity (Digitaria sanguinalis; [3]): 30%
% activity (Digitaria sanguinalis; [5]): 30%
% activity (Digitaria sanguinalis; 20 DAT, Ex. 26 solo 125 gai/ha): 60%
% activity (Digitaria sanguinalis; DIGSA, 20 DAT, solo Ex. 26 62.5 gai/ha): 20%
% activity (Digitaria sanguinalis; DIGSA, 20 DAT, solo Ex. 26 125 gai/ha): 45%
% activity (Digitaria sanguinalis; DIGSA, 20 DAT, solo Ex. 26 125 gai/ha (Table X68)): 40%
% activity (Digitaria sanguinalis; DIGSA, Ex. 26 solo 31.25 gai/ha, 20 DAT): 35%
% activity (Digitaria sanguinalis; DIGSA, Ex. 26 solo 62.5 gai/ha, 20 DAT): 55%
% activity (Digitaria sanguinalis; DIGSA, Ex. 26 solo 125 gai/ha, 20 DAT): 60%
% activity (Digitaria sanguinalis; Ex. 26 solo 125 gai/ha, 21 DAT, DIGSA): 45%
% activity (Digitaria sanguinalis; Ex. 26 solo, 31.25 gai/ha, 20 DAT, DIGSA): 5%
% activity (Digitaria sanguinalis; Ex. 26 solo, 125 gai/ha, 20 DAT, DIGSA): 40%
% activity (Papaver rhoeas; [3]): 0%
% activity (Papaver rhoeas; [5]): 0%
% activity (Papaver rhoeas; 20 DAT, Ex. 26 solo 125 gai/ha): 30%
% activity (Papaver rhoeas; [6]): 0%
% activity (Papaver rhoeas; [7]): 0%
% activity (Papaver rhoeas; [8]): 0%
% activity (Papaver rhoeas; Ex. 26 solo 125 gai/ha, 20 DAT): 0% and 30%
% activity (Papaver rhoeas; Ex. 26 solo, 31.25 gai/ha, 20 DAT): 0%
% activity (Papaver rhoeas; [9]): 0%
% activity (Papaver rhoeas; [4]): 0%
% activity (Apera spica-venti [2]; 20 DAT, APESV, Ex. 26 solo 62.5 gai/ha): 70%
% activity (Apera spica-venti [2]; 20 DAT, APESV, Ex. 26 solo 125 gai/ha): 75%
% activity (Apera spica-venti [2]; 20 DAT, APESV, Ex. 26 solo 250 gai/ha): 80%
% activity (Apera spica-venti [2]; 21 DAT, Ex. 26 solo 125 gai/ha): 65%
% activity (Apera spica-venti [2]; 21 DAT, Ex. 26 solo 250 gai/ha): 75%
% activity (Apera spica-venti [2]; APESV, Ex. 26 solo 125 gai/ha, 20 DAT): 75% and 70%
% activity (Apera spica-venti [2]; APESV, Ex. 26 solo 250 gai/ha, 20 DAT): 75%
% activity (Apera spica-venti [2]; Ex. 26 solo 62.5 gai/ha, 20 DAT, APESV): 60%
% activity (Apera spica-venti [2]; Ex. 26 solo 125 gai/ha, 20 DAT, APESV): 70%
% activity (Apera spica-venti [2]; Ex. 26 solo 250 gai/ha, 20 DAT, APESV): 75%
% activity (Galium aparine; [3]): 0%
% activity (Galium aparine; [5]): 0%
% activity (Galium aparine; 20 DAT, Ex. 26 solo 125 gai/ha): 0%
% activity (Galium aparine; 20 DAT, GALAP, Ex. 26 solo 31.25 gai/ha): 0%
% activity (Galium aparine; 20 DAT, GALAP, Ex. 26 solo 62.5 gai/ha): 0%
% activity (Galium aparine; 20 DAT, GALAP, Ex. 26 solo 125 gai/ha): 0%
% activity (Galium aparine; 20 DAT, GALAP, Ex. 26 solo 250 gai/ha): 0%
% activity (Galium aparine; Ex. 26 solo, 31.25 gai/ha, 20 DAT, GALAP): 0%
% activity (Galium aparine; Ex. 26 solo, 62.5 gai/ha, 20 DAT, GALAP): 0%
% activity (Galium aparine; Ex. 26 solo, 125 gai/ha, 20 DAT, GALAP): 0%
% activity (Galium aparine; GALAP, 20 DAT, solo Ex. 26 125 gai/ha): 0%
% activity (Galium aparine; GALAP, Ex. 26 solo 62.5 gai/ha, 20 DAT): 0%
% activity (Galium aparine; GALAP, Ex. 26 solo 125 gai/ha, 20 DAT): 0%
% activity (Galium aparine; GALAP, Ex. 26 solo 250 gai/ha, 20 DAT): 0%
% activity (Bromus sterilis; 20 DAT, BROST, Ex. 26 solo 31.25 gai/ha): 10%
% activity (Bromus sterilis; 20 DAT, BROST, Ex. 26 solo 125 gai/ha): 35%
% activity (Bromus sterilis; 21 DAT, BROST, Ex. 26 solo 125 gai/ha): 60%
% activity (Bromus sterilis; BROST, 20 DAT, solo Ex. 26 125 gai/ha): 35%
% activity (Bromus sterilis; BROST, 20 DAT, solo Ex. 26 125 gai/ha (Table X68)): 30%
% activity (Bromus sterilis; BROST, Ex. 26 solo 62.5 gai/ha, 20 DAT): 20%
% activity (Bromus sterilis; BROST, Ex. 26 solo 125 gai/ha, 20 DAT): 30%
% activity (Bromus sterilis; Ex. 26 solo 125 gai/ha, 20 DAT, BROST): 35%
% activity (Bromus sterilis; Ex. 26 solo, 31.25 gai/ha, 20 DAT, BROST): 0%
% activity (Bromus sterilis; Ex. 26 solo, 62.5 gai/ha, 20 DAT, BROST): 20%
% activity (Bromus sterilis; Ex. 26 solo, 125 gai/ha, 20 DAT, BROST): 30%
% activity (Stellaria media; 20 DAT, Ex. 26 solo 125 gai/ha): 20%
% activity (Stellaria media; 20 DAT, Ex. 26 solo 250 gai/ha): 90%
% activity (Stellaria media; 20 DAT, solo Ex. 26 15 gai/ha): 40%
% activity (Stellaria media; [6]): 30%
% activity (Stellaria media; 20 DAT, solo Ex. 26 125 gai/ha): 0%
% activity (Stellaria media; [7]): 0%
% activity (Stellaria media; [8]): 0%
% activity (Stellaria media; Ex. 26 solo 125 gai/ha, 21 DAT): 30%
% activity (Stellaria media; Ex. 26 solo 250 gai/ha, 21 DAT): 80%
% activity (Stellaria media; [9]): 0%
% activity (Stellaria media; [4]): 0%
